According to PubChem BioAssay AID1963825 (Molecular Pharmacology Branch, DTP, NCI, 2024):

Experiment: Anticancer human tumor 997537-175-T-J1-PDC patient-derived colon adenocarcinoma cell line growth inhibition [POLQ]
Conditions: 997537-175-T-J1-PDC complex spheroid viability, combination with POLQ inhibitors; for IC50: curve of first compound; for viability, T/C: stronger effect = lower value; active means viability on the fitted dose curve at most 10% of control; inactive means the rest
In short: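 Three-cell-type spheroids modelling solid tumor plus stroma served as the readout system; POL inhibitors were tested individually and in combination, concentration ranges set by clinical Cmax where known.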

[1] = second compound 0.0316 µM, first compound 0.0316 µM
[2] = second compound 0.0316 µM, first compound 0.1 µM
[3] = second compound 0.0316 µM, first compound 0.316 µM
[4] = second compound 0.0316 µM, first compound 1 µM
[5] = second compound 0.0316 µM, first compound 3.16 µM
[6] = second compound 0.0316 µM, first compound 10 µM
[7] = second compound 0.1 µM, first compound 0.0316 µM
[8] = second compound 0.1 µM, first compound 0.1 µM
[9] = second compound 0.1 µM, first compound 0.316 µM
[10] = second compound 0.1 µM, first compound 1 µM
[11] = second compound 0.1 µM, first compound 3.16 µM
[12] = second compound 0.1 µM, first compound 10 µM
[13] = second compound 0.316 µM, first compound 0.0316 µM
[14] = second compound 0.316 µM, first compound 0.1 µM
[15] = second compound 0.316 µM, first compound 0.316 µM
[16] = second compound 0.316 µM, first compound 1 µM
[17] = second compound 0.316 µM, first compound 3.16 µM
[18] = second compound 0.316 µM, first compound 10 µM
[19] = second compound 1 µM, first compound 0.0316 µM
[20] = second compound 1 µM, first compound 0.1 µM
[21] = second compound 1 µM, first compound 0.316 µM
[22] = second compound 1 µM, first compound 1 µM
[23] = second compound 1 µM, first compound 3.16 µM
[24] = second compound 1 µM, first compound 10 µM
[25] = second compound 3.16 µM, first compound 0.0316 µM
[26] = second compound 3.16 µM, first compound 0.1 µM
[27] = second compound 3.16 µM, first compound 0.316 µM
[28] = second compound 3.16 µM, first compound 1 µM
[29] = second compound 3.16 µM, first compound 3.16 µM
[30] = second compound 3.16 µM, first compound 10 µM
[31] = second compound 10 µM, first compound 0.0316 µM
[32] = second compound 10 µM, first compound 0.1 µM
[33] = second compound 10 µM, first compound 0.316 µM
[34] = second compound 10 µM, first compound 1 µM
[35] = second compound 10 µM, first compound 3.16 µM
[36] = second compound 10 µM, first compound 10 µM
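Further: luminescence signal used as a surrogate for viable cells; spheroids exposed to drugs for seven days before readout.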

CC(C)n1c(=O)n(C)c2cnc3cc(F)c(-c4ccc(OCCCN5CCCCC5)nc4)cc3c21 + COC1C(OC(N)=O)C(O)C(Oc2ccc3c(O)c(NC(=O)c4ccc(O)c(CC=C(C)C)c4)c(=O)oc3c2C)OC1(C)C
> 10 µM: IC50 (second compound 0.0316 µM) | IC50 (second compound 0.1 µM) | IC50 (second compound 0.316 µM) | IC50 (second compound 1 µM) | IC50 (second compound 3.16 µM) | IC50 (second compound 10 µM)
inactive: viability, T/C [1] 79% | viability, T/C [2] 104% | viability, T/C [3] 106% | viability, T/C [4] 89.6% | viability, T/C [5] 102% | viability, T/C [6] 89.5% | viability, T/C [7] 103% | viability, T/C [8] 102% | viability, T/C [9] 102% | viability, T/C [10] 96% | viability, T/C [11] 93.8% | viability, T/C [12] 88.1% | viability, T/C [13] 83.8% | viability, T/C [14] 102% | viability, T/C [15] 114% | viability, T/C [16] 80.4% | viability, T/C [17] 89.2% | viability, T/C [18] 77.7% | viability, T/C [19] 97.6% | viability, T/C [20] 97.3% | viability, T/C [21] 102% | viability, T/C [22] 99.6% | viability, T/C [23] 93.2% | viability, T/C [24] 88% | viability, T/C [25] 98.4% | viability, T/C [26] 97.8% | viability, T/C [27] 90.7% | viability, T/C [28] 88% | viability, T/C [29] 80% | viability, T/C [30] 89.8% | viability, T/C [31] 103% | viability, T/C [32] 95.8% | viability, T/C [33] 90.9% | viability, T/C [34] 82.6% | viability, T/C [35] 80.1% | viability, T/C [36] 85.5%

C#Cc1c(F)ccc2cc(O)cc(-c3ncc4c(N5CC6CCC(C5)N6)nc(OCC56CCCN5CC(F)C6)nc4c3F)c12 (centres undefined) + COC1C(OC(N)=O)C(O)C(Oc2ccc3c(O)c(NC(=O)c4ccc(O)c(CC=C(C)C)c4)c(=O)oc3c2C)OC1(C)C
inactive: viability, T/C [1] 98.8% | viability, T/C [2] 111% | viability, T/C [3] 103% | viability, T/C [4] 108% | viability, T/C [5] 112% | viability, T/C [6] 107% | viability, T/C [7] 119% | viability, T/C [8] 104% | viability, T/C [9] 105% | viability, T/C [10] 99% | viability, T/C [11] 123% | viability, T/C [12] 103% | viability, T/C [13] 108% | viability, T/C [14] 116% | viability, T/C [15] 97.9% | viability, T/C [16] 104% | viability, T/C [17] 101% | viability, T/C [18] 98.4% | viability, T/C [19] 107% | viability, T/C [20] 121% | viability, T/C [21] 94.9% | viability, T/C [22] 95.9% | viability, T/C [23] 111% | viability, T/C [24] 97.9% | viability, T/C [25] 108% | viability, T/C [26] 112% | viability, T/C [27] 84.1% | viability, T/C [28] 104% | viability, T/C [29] 119% | viability, T/C [30] 95.8% | viability, T/C [31] 101% | viability, T/C [32] 108% | viability, T/C [33] 109% | viability, T/C [34] 106% | viability, T/C [35] 110% | viability, T/C [36] 97.1%
> 10 µM: IC50 (second compound 0.0316 µM) | IC50 (second compound 0.1 µM) | IC50 (second compound 0.316 µM) | IC50 (second compound 1 µM) | IC50 (second compound 3.16 µM) | IC50 (second compound 10 µM)
